The record followed here is PubChem BioAssay AID2745 (NMMLSC, 2010).

Active and inactive are the calls of the source. No rule for the calls is given here.

Tested on in the first assay: not listed separately
Kind of assay: concentration series on yeast TOR reporter LAP4 – cell-based, MLPCN hits, flow cytometry, dose response (AID 2745).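 Also: yeast exposed to compound for three hours at 30 degrees.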 The following applies: S. cerevisiae LAP4-GFP reporter, flow cytometry fluorescence; at 33 µM (top of the series).
On to `O=c1c2cc(Cl)ccc2nc(-c2ccc([N+](=O)[O-])cc2)n1O`, for which the LAP4-GFP fluorescence (kMESF) is 5.26 kMESF (inactive). The same measure, in the same setting: then `COc1ccc2c(/C=C/c3cc[n+](C)cc3)c[nH]c2c1`, with 3.71 kMESF (inactive). In the case of `Cc1cc(C)c2c(c1)/C(=C/C(=O)c1ccc(Br)s1)C(=O)N2`, the LAP4-GFP fluorescence (kMESF) is 6.56 kMESF (inactive). For `CCC1(c2ccccc2)ON(c2c(Br)cccc2Br)C1=O` (configuration not stated), the LAP4-GFP fluorescence (kMESF) was 7.52 kMESF (inactive). Turning to `Cc1nn2c(-c3ccncc3)nnc2c2ccccc12`, the LAP4-GFP fluorescence (kMESF) was 3.34 kMESF (inactive). On the same count and under the same terms, under `CCN(CC(=O)Nc1cc(S(=O)(=O)N2CCOCC2)ccc1Cl)Cc1ccccc1` stands 3.97 kMESF (inactive); under `CN(C)c1ccc(N=Cc2nc(-c3ccccc3)oc2OC(=O)c2cccc(Cl)c2)cc1`, 3.99 kMESF (inactive); under `CCOC(=O)CS(=O)(=O)c1nc(-c2ccccc2)cc(C(F)(F)F)n1`, 19.9 kMESF (inactive). With `COc1ccc(C2(C)ON(c3ccccc3C(F)(F)F)C2=O)cc1` (configuration not stated), the LAP4-GFP fluorescence (kMESF) is 6.61 kMESF (inactive). On to `COc1ccc2c(c1)c(/C=C/c1cc[n+](C)cc1)cn2C`, for which the LAP4-GFP fluorescence (kMESF) is 4.11 kMESF (inactive). Take `O=C(CS(=O)c1ccccc1[N+](=O)[O-])Oc1ccc(Br)cc1` (configuration not stated): the LAP4-GFP fluorescence (kMESF) is 21.8 kMESF (inactive). As for `O=[N+]([O-])c1cc(CN2CCN(c3ccccc3)CC2)c(O)c2ncccc12`, the LAP4-GFP fluorescence (kMESF) is 14.7 kMESF (inactive). For the compound `Cc1ccccc1OCCOC(=O)c1ccc(S(=O)(=O)N2CCCC2)cc1`, the LAP4-GFP fluorescence (kMESF) is 3.13 kMESF (inactive). For the compound `O=C(c1ccc([N+](=O)[O-])o1)N1CCN(c2nc3c(F)cc(F)cc3s2)CC1`, the LAP4-GFP fluorescence (kMESF) is -0.9 kMESF (inactive). In the case of `Cc1[nH]c2ccccc2c1C(=O)COC(=O)c1ccc([N+](=O)[O-])s1`, the LAP4-GFP fluorescence (kMESF) was 6.02 kMESF (inactive). For `O=C(/C=C/Sc1ncn[nH]1)c1ccc(Cl)cc1`, the LAP4-GFP fluorescence (kMESF) is 15.9 kMESF (inactive). On to `O=C(COc1ccccc1)NNC(=S)NC(=O)c1ccccc1`, for which the LAP4-GFP fluorescence (kMESF) is 4.36 kMESF (inactive). Turning to `COc1cc(NC(=O)c2ccc(C)cc2)ccc1NC(=O)c1cc2ccccc2o1`, the LAP4-GFP fluorescence (kMESF) was 3.61 kMESF (inactive). Take `CCOC(=O)c1c(C)oc2c1c(C(c1ccncc1)N1CCOCC1)c(O)c1ccccc12` (configuration not stated): the LAP4-GFP fluorescence (kMESF) is 6.29 kMESF (inactive). `COc1cc(NC(=O)c2cccc(C)c2)ccc1NC(=O)c1cc2ccccc2o1`: the LAP4-GFP fluorescence (kMESF) is 3.31 kMESF (inactive). Turning to `Cc1ccc(S(=O)(=O)N2CC(C(=O)O)=CC[C@H]2c2ccc(Cl)cc2)cc1`, the LAP4-GFP fluorescence (kMESF) was 4.05 kMESF (inactive).

On to `O=C(Oc1c(Cl)cc(Cl)c2cccnc12)c1cccs1`, for which the LAP4-GFP fluorescence (kMESF) was 13.8 kMESF (inactive). Regarding `COC(=O)CCC(=O)OC1(C)C(=O)C2=COC(c3ccc(OC)cc3)=CC2=C(Br)C1=O` (configuration not stated), the LAP4-GFP fluorescence (kMESF) was 6.01 kMESF (inactive). For `O=C(OCC(=O)N1CCN(C(=O)c2ccco2)CC1)c1cc(-c2cccc(Br)c2)nc2ccccc12`, the LAP4-GFP fluorescence (kMESF) is 9.27 kMESF (inactive). As for `O=C(Sc1cccc2cccnc12)c1ccccc1Br`, the LAP4-GFP fluorescence (kMESF) is 18.8 kMESF (inactive).

As for `COc1cc(/C=C2\C(=O)ON=C2c2ccc(Cl)cc2)ccc1O`, the LAP4-GFP fluorescence (kMESF) was 9.12 kMESF (inactive). `Oc1c(C(Nc2nc3ccccc3s2)c2ccco2)ccc2cccnc12` (configuration not stated): the LAP4-GFP fluorescence (kMESF) was 24.1 kMESF (inactive). As for `Cc1cc(NC(c2ccc(Cl)cc2)c2ccc3cccnc3c2O)no1` (configuration not stated), the LAP4-GFP fluorescence (kMESF) was 11.2 kMESF (inactive). In the case of `N#Cc1cc([N+](=O)[O-])c(-n2nnc3ccccc32)c([N+](=O)[O-])c1`, the LAP4-GFP fluorescence (kMESF) is 14.5 kMESF (inactive).

In the case of `CN(O)/C=c1/ccc2c(n1)C(=O)C=CC=2`, the LAP4-GFP fluorescence (kMESF) was 17.5 kMESF (inactive).

Consider `CC1=C(C)/C(=N\OS(=O)(=O)c2ccc(C)cc2)C=CC1=O`, for which the LAP4-GFP fluorescence (kMESF) is 5.77 kMESF (inactive).

Take `Cc1cccc(/C=C/C(=O)c2ccc([N+](=O)[O-])o2)c1`: the LAP4-GFP fluorescence (kMESF) was 9.32 kMESF (inactive).

As for `O=C1C(=O)c2ccccc2-c2ccccc21`, the LAP4-GFP fluorescence (kMESF) is 5.27 kMESF (inactive).

As to `O=C1C=C(Nc2ccc(Cl)cc2)C(=O)N1c1ccc(Cl)cc1`, the LAP4-GFP fluorescence (kMESF) was 3.03 kMESF (inactive).

With `O=C(O)c1ccc(COc2ccccc2C=C2C(=O)c3ccccc3C2=O)cc1`, the LAP4-GFP fluorescence (kMESF) is 4.11 kMESF (inactive). As to `O=C(/C=C/c1ccccc1[N+](=O)[O-])c1ccccc1Br`, the LAP4-GFP fluorescence (kMESF) is 15.6 kMESF (inactive). The same measure, in the same setting: under `CC(=O)Oc1oc(-c2ccccc2)nc1C=Nc1ccccc1` stands 8.16 kMESF (inactive).

The next assay deals with S. cerevisiae LAP4-GFP reporter, flow cytometry fluorescence. The description is as above.
Conditions: not given
Regarding `Cc1[nH]c(-c2ccccn2)nc(=S)c1Cl`, the EC50 was 4.58 µM. As for `COc1cccc(/C=C/C(=O)c2c(O)cc(C)oc2=O)c1O`, the half-maximal effective concentration (EC50) was 4.42 µM.

In the case of `CN1CCN(C(c2ccc(C(F)(F)F)cc2)c2ccc3cccnc3c2O)CC1` (configuration not stated), the EC50 is 6.72 µM. As for `Cc1ccc(/C=N/Nc2ncc(Cl)cc2Cl)s1`, the EC50 was 31.7 µM. Regarding `Cc1cccc(C)c1NC(=O)C(Cl)C(=O)c1ccccc1` (configuration not stated), the EC50 was 1.45 µM. With `COc1ccc(N2C(=O)/C(=C/c3cccs3)C(=O)NC2=S)cc1`, the 50% effective concentration (EC50) is 1.32 µM. Turning to `CC(C)(C)n1nc(-c2ccc(F)cc2)c2c(N)ncnc21`, the EC50 was 3.51 µM. The same measure, in the same setting: then `O=C(Nc1nnc(-c2ccc(Cl)cc2)o1)c1ccccc1Br`, with 4.31 µM; and `C/C(=N\NC(=O)c1cc2ccccc2cc1O)c1ccccn1`, with 3.98 µM. Turning to `O=[N+]([O-])c1cc(O)c2ncccc2c1`, the EC50 was 9.88 µM. On the same count and under the same terms, under `O=C1NC(=O)N(Cc2ccc(F)cc2)C(=O)/C1=C/c1cccs1` stands 3.41 µM; under `Cc1ccsc1/C=N/Nc1ncc(Cl)cc1Cl`, 6.19 µM.

Take `COc1cccc(/C=N/Nc2ncc(C(F)(F)F)cc2Cl)c1O`: the 50% effective concentration (EC50) is 6.3 µM. Take `O=C(c1ccccc1)c1ccccc1N1C(=O)C=CC1=O`: the EC50 is 2 µM.

For `CCc1cc(C(=O)Nc2nc(-c3ccccn3)cs2)sc1C`, the concentration for a half-maximal effect (EC50) was 5.96 µM.

For `Cc1ccc(O)c(N=Nc2nccs2)c1`, the half-maximal effective concentration (EC50) is 4.52 µM. As for `O=C(NC(=S)NNC(=O)c1cnccn1)c1ccc(F)cc1`, the concentration for a half-maximal effect (EC50) is 7.94 µM. For the compound `Cc1ccc(/C=C2/SC(=S)N(C3CCCCC3)C2=O)o1`, the EC50 was 13.3 µM. Consider `O=C1ON=C(c2ccccc2)/C1=C\c1ccco1`, for which the concentration giving a half-maximal response (EC50) is 3.67 µM. For `CC1=NNC(=O)/C1=C\c1cn(-c2ccccc2)nc1-c1ccccc1`, the 50% effective concentration (EC50) was 7.23 µM. On to `CC(C)(C)n1nc(-c2ccc(Cl)cc2)c2c(N)ncnc21`, for which the EC50 is 4.82 µM.

Consider `CCc1sc(C(=O)Nc2nc(-c3ccccn3)cs2)cc1C`, for which the concentration giving a half-maximal response (EC50) was 3.94 µM. As to `O=C1NC(=O)N(Cc2ccco2)C(=O)/C1=C/c1ccc(-c2cccc([N+](=O)[O-])c2)o1`, the concentration giving a half-maximal response (EC50) is 6.36 µM.

As to `O=C(COc1ccc(F)cc1Cl)Nc1nc(-c2ccccn2)cs1`, the half-maximal effective concentration (EC50) was 2.98 µM. Regarding `CC(C)(C)C(=O)NC(=S)NNC(=O)c1ccc(-c2ccccc2)cc1`, the EC50 is 7.51 µM.

With `c1ccc(-c2cccc(-c3ccccn3)n2)nc1`, the 50% effective concentration (EC50) was 3.9 µM. Same read-out and setting: under `CC(C)(C)c1ccc(NC(=O)COC(=O)c2ccc([N+](=O)[O-])s2)cc1` stands 3.72 µM; under `CCc1ccc(OCC(=O)NNC(=S)NC(=O)C2CC2)c(Br)c1`, 5.45 µM. Same read-out and setting: under `CC1=CC(=O)C(C(C)C)=C/C1=N/OS(=O)(=O)c1ccccc1` stands 9.59 µM; under `Cc1cccc(C(=O)NC(=S)NNC(=O)Cc2ccccc2)c1`, 10.9 µM; under `COc1ccccc1N=Nc1ccc(O)c2ncccc12`, 4.25 µM. For `COc1ccc(/C=C2\C(=O)ON=C2c2ccccc2)cc1`, the EC50 was 6.86 µM.

Regarding `N/C(Cc1ccc(Cl)c(Cl)c1)=N\OC(=O)c1cccs1`, the EC50 was 5.04 µM. For the compound `CCCCC(=O)NNC(=S)NC(=O)c1ccc(C)cc1`, the 50% effective concentration (EC50) is 11.3 µM.

As for `O=C1NC(=O)N(c2ccccc2)C(=O)/C1=C/c1ccc(Sc2ccccc2)o1`, the concentration for a half-maximal effect (EC50) was 11.2 µM. Take `COc1ccc(N2C(=O)C(Cl)=C(Oc3cccc(OC)c3)C2=O)cc1`: the concentration for a half-maximal effect (EC50) is 4.89 µM. For the compound `COC(=O)/C(=C/c1c[nH]c2ccccc12)[N+](=O)[O-]`, the concentration giving a half-maximal response (EC50) was 20.7 µM.

Consider `CN1CCN(C(=O)c2cc(COc3c(F)cccc3F)on2)CC1c1ccccc1` (configuration not stated), for which the EC50 was 6.66 µM. `COc1ccc(N2CCN(C(=O)c3ccc(Br)cc3)CC2)c([N+](=O)[O-])c1`: the EC50 is 11.4 µM. On the same count and under the same terms, under `CC(=O)c1ccc(N2CCN(C(=O)c3ccc(Br)cc3)CC2)c(F)c1` stands 9.91 µM; under `C/C(=N/NC(=O)c1ccc(C(C)(C)C)cc1)c1ccccn1`, 32.7 µM. Turning to `CCN1/C(=C/C(C)=C/c2sc3ccccc3[n+]2CC)Sc2ccccc21`, the EC50 was 4.21 µM. Turning to `CC(C)(C)C(=O)C(Cl)C(=O)Nc1ccccc1` (configuration not stated), the EC50 is 14.6 µM. On to `Cc1ccc(C(=O)Oc2oc(-c3ccco3)nc2C=Nc2ccc(Cl)cc2)cc1`, for which the EC50 is 3.6 µM.

In the case of `O=[N+]([O-])c1cc(S(=O)(=O)C(F)(F)F)ccc1Sc1nc2ccccc2s1`, the EC50 is 8.42 µM. On the same count and under the same terms, then `O=C1C=CC(=O)N1c1cccc(-c2ccccc2)c1`, with 0.385 µM; and `O=C(COc1ccccc1)NNC(=S)NC(=O)c1ccc(Cl)cc1Cl`, with 17.8 µM; and `CCOC(=O)CSC1=NC(=O)/C(=C\c2ccc(Cl)cc2)S1`, with 27 µM. Regarding `COc1ccc(C(=O)NNC(=S)NC(=O)/C=C/c2cccs2)cc1`, the EC50 was 9.05 µM. For the compound `O=C(Nc1ccccc1)c1nnsc1S(=O)(=O)c1ccc(Cl)cc1`, the half-maximal effective concentration (EC50) was 0.564 µM. As to `O=C(C#Cc1ccccc1)c1cccc([N+](=O)[O-])c1`, the EC50 was 7.75 µM.

`COc1ccc(C(=O)/C=C2/C(=O)Nc3ccccc32)cc1`: the EC50 was 3.38 µM. Turning to `CC1=C/C(=N\OS(=O)(=O)c2ccccc2)C(C(C)C)=CC1=O`, the EC50 is 5.16 µM.

In the case of `Cc1ccc(C2=NOC(=O)/C2=C\c2ccc(C)o2)cc1`, the EC50 was 4.47 µM. As to `Cc1cccc(N=Nc2ccc(O)c3ncccc23)c1`, the concentration for a half-maximal effect (EC50) is 14 µM.
